What was measured:
Mu-type opioid receptor = Mu-type opioid receptor (Homo sapiens, UniProt P35372); assay: DRUGMATRIX: Opiate mu (OP3, MOP) radioligand binding (ligand: [3H] Diprenorphine); format: cell membranes, CHO-K1, Membrane; conditions: Not Active = under 50% inhibition at 10 µM
[1] = DRUGMATRIX: Glutamate, AMPA radioligand binding (ligand: [3H] AMPA); format: cell membranes, Rattus norvegicus, Wistar, Cerebral cortex, Membrane; conditions: Not Active = under 50% inhibition at 10 µM
Insulin receptor = Insulin receptor (Rattus norvegicus, UniProt P15127); format: cell membranes, Wistar, Liver, Membrane; note: in other assays of this panel Not Active means under 50% inhibition at 10 µM
Insulin receptor, sequence (P15127 27-759 limits assumed): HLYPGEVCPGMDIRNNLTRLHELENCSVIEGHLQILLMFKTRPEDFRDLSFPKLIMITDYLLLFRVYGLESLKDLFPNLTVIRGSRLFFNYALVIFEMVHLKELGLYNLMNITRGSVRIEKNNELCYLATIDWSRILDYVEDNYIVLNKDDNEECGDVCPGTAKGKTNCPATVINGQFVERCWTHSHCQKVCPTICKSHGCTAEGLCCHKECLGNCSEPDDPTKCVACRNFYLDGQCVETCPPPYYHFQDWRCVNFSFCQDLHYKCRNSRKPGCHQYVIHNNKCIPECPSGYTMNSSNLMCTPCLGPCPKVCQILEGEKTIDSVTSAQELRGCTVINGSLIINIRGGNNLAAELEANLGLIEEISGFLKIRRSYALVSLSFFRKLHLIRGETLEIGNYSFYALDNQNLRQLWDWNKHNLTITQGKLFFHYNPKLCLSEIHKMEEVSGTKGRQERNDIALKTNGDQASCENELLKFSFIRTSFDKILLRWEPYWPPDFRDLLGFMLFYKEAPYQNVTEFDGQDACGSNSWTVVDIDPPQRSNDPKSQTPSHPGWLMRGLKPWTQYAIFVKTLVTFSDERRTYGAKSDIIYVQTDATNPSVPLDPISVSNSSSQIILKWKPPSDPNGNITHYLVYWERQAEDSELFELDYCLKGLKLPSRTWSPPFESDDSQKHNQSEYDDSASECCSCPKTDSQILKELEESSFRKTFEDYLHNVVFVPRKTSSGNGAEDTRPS
Insulin receptor, sequence (P15127 764-1383 limits assumed): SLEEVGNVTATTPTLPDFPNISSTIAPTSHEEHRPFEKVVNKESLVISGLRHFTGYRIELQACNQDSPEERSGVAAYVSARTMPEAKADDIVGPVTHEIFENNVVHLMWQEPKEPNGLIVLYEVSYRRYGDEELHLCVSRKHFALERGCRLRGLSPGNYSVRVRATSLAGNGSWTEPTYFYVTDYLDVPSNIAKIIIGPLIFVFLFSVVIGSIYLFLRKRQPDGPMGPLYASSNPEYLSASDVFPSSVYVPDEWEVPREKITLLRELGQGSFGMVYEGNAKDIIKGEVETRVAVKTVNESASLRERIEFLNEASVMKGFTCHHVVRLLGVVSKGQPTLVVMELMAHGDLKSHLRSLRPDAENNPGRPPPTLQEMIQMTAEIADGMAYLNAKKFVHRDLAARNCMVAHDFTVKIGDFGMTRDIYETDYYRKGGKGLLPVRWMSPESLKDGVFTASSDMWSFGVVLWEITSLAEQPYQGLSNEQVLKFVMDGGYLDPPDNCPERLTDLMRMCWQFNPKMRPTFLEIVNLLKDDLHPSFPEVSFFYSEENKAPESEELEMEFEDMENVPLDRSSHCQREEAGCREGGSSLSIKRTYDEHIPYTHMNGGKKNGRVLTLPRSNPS

D(4) dopamine receptor = molecular target: T1, D(4) dopamine receptor (Homo sapiens, UniProt P21917); assay: DRUGMATRIX: Dopamine D4.2 radioligand binding (ligand: [3H] Spiperone); format: cell membranes, CHO-K1, Membrane; conditions: cho-k1; Not Active = under 50% inhibition at 10 µM
T1 sequence (P21917 whole entry): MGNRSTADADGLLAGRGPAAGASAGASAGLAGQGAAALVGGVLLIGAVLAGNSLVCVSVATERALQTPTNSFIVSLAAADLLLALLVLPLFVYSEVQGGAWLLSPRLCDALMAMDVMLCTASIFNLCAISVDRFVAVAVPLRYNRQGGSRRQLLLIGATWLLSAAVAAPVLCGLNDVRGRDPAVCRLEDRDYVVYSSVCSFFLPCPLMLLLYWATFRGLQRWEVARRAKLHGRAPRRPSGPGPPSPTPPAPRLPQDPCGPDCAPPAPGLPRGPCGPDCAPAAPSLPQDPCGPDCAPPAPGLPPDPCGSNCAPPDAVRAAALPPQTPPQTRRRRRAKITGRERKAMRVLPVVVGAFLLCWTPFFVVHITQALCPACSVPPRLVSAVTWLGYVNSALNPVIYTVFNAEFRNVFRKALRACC

Cytochrome P450 3A4 = Cytochrome P450 3A4 (Homo sapiens, UniProt P08684); conditions: bti-tn-5b1-4; note: in other assays of this panel Not Active means under 50% inhibition at 10 µM
Cytochrome P450 3A4, sequence (P08684 whole entry): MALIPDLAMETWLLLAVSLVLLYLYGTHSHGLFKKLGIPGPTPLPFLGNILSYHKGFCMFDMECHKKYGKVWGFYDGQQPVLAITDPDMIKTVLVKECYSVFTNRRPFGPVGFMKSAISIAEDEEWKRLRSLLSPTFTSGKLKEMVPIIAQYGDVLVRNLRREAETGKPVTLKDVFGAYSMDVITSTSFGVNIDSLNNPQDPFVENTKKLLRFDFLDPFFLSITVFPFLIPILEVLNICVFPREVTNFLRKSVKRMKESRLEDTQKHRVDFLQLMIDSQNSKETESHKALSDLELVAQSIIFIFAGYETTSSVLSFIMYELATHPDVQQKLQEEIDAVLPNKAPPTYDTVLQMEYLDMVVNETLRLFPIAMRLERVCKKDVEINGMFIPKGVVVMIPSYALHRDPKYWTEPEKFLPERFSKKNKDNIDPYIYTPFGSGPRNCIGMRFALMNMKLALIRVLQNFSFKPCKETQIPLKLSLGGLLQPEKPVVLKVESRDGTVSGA

[2] = molecular target: T2, Muscarinic acetylcholine receptor M4 (Homo sapiens, UniProt P08173); format: cell membranes, CHO-K1, Membrane; conditions: cho-k1; note: in other assays of this panel Not Active means under 50% inhibition at 10 µM
T2 sequence (P08173 whole entry): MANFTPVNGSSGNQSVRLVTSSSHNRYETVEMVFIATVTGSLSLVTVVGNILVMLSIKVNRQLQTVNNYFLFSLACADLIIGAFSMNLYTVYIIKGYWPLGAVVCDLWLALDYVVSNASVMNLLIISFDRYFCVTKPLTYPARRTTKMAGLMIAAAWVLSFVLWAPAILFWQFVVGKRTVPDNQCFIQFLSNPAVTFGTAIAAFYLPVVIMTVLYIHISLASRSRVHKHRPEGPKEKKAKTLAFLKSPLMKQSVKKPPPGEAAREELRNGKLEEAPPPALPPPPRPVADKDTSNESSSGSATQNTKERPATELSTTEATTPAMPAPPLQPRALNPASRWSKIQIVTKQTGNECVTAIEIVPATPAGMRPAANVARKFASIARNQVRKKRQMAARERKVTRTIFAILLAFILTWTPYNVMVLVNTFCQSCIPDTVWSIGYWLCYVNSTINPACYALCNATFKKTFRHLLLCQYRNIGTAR

[3] = molecular target: Voltage-gated inwardly rectifying potassium channel KCNH2 (Homo sapiens, UniProt Q12809); conditions: hek293; note: in other assays of this panel Not Active means under 50% inhibition at 10 µM
Voltage-gated inwardly rectifying potassium channel KCNH2, sequence (Q12809 whole entry): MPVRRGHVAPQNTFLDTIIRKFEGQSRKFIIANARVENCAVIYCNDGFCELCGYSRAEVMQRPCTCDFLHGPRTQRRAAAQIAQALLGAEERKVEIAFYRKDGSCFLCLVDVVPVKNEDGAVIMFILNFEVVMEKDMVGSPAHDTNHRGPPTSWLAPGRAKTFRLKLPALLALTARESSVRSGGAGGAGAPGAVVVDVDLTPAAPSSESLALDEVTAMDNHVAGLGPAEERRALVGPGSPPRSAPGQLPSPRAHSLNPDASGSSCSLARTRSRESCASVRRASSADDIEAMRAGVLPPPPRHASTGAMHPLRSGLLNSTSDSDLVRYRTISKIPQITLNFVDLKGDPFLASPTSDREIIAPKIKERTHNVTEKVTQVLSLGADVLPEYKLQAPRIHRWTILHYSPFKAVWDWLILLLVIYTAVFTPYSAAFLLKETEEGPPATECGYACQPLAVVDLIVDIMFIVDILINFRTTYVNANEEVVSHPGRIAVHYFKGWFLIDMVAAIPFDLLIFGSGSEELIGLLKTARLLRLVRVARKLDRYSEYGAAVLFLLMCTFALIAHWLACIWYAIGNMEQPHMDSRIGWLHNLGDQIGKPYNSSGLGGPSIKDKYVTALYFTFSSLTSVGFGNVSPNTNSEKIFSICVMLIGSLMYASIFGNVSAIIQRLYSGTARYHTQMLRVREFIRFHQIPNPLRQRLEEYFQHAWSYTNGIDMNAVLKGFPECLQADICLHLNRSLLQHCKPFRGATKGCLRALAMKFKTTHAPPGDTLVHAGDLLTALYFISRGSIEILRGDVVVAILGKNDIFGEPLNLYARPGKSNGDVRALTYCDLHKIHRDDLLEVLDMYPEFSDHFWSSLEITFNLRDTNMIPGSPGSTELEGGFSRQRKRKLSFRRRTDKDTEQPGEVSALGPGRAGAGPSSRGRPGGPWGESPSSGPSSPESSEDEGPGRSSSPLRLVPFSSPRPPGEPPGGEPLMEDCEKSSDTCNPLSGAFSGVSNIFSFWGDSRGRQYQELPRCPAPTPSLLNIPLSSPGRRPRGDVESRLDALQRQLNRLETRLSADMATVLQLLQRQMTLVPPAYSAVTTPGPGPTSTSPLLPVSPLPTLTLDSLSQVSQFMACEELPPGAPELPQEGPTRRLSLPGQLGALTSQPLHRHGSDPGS

[4] = DRUGMATRIX: Serotonin (5-Hydroxytryptamine) 5-HT3 radioligand binding (ligand: [3H] GR-65630); format: cell membranes, Membrane; conditions: hek293; Not Active = under 50% inhibition at 10 µM

Mu-type opioid receptor, sequence (P35372 whole entry): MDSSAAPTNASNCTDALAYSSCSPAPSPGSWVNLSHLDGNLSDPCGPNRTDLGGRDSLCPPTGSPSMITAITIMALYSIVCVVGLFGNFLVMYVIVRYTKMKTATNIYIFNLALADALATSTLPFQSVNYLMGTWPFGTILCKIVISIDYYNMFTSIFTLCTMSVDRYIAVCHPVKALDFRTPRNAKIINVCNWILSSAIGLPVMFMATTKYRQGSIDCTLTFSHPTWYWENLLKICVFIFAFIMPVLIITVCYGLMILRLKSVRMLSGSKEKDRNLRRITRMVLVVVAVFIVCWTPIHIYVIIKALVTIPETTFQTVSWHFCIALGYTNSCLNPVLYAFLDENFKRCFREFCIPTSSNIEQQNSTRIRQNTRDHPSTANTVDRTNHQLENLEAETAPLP

Row | Structure (SMILES) | IC50 (Mu-type opioid receptor; cho-k1) | IC50 [1] | Ki [1] | IC50 (Insulin receptor) | IC50 (D(4) dopamine receptor) | IC50 (Cytochrome P450 3A4) | Ki (Cytochrome P450 3A4) | IC50 [2] | IC50 [3] | Ki [3] | IC50 [4] | Ki [4] | Ki (Mu-type opioid receptor) [µM] | IC50 (Mu-type opioid receptor; read-out: IC50) [µM]
1 | C=C1/C(=C\C=C2/CCC[C@]3(C)[C@@H]([C@H](C)CCCC(C)C)CC[C@@H]23)C[C@@H](O)C[C@@H]1O [ALFACALCIDOL] | Not Active | Not Active | Not Active | Not Active | Not Active | Not Active | Not Active | Not Active | Not Active | Not Active | Not Active | Not Active | – | –
2 | CCCCC1C(=O)N(c2ccccc2)N(c2ccccc2)C1=O [PHENYLBUTAZONE] | Not Active | Not Active | Not Active | Not Active | Not Active | Not Active | Not Active | Not Active | Not Active | Not Active | Not Active | Not Active | – | –
3 | [N-]=[N+]=CC(=O)OC[C@H](N)C(=O)O [AZASERINE] | Not Active | Not Active | Not Active | Not Active | Not Active | Not Active | Not Active | Not Active | Not Active | Not Active | Not Active | Not Active | – | –
4 | O=C(/C=C/c1ccc(O)c(O)c1)OCCc1ccccc1 [CAFFEIC ACID PHENETHYL ESTER] | Not Active | Not Active | Not Active | Not Active | Not Active | Not Active | Not Active | Not Active | Not Active | Not Active | Not Active | Not Active | – | –
5 | OCCO [ETHYLENE GLYCOL] | Not Active | Not Active | Not Active | Not Active | Not Active | Not Active | Not Active | Not Active | Not Active | Not Active | Not Active | Not Active | – | –
6 | C[C@H]([C@](O)(Cn1cncn1)c1ccc(F)cc1F)S(C)(=O)=O [GENACONAZOLE] | Not Active | Not Active | Not Active | Not Active | Not Active | Not Active | Not Active | Not Active | Not Active | Not Active | Not Active | Not Active | – | –
7 | CC[C@H](C)C(=O)O[C@H]1C[C@H](O)C=C2C=C[C@H](C)[C@H](CC[C@@H](O)C[C@@H](O)CC(=O)O)[C@H]21 [PRAVASTATIN] | Not Active | Not Active | Not Active | Not Active | Not Active | Not Active | Not Active | Not Active | Not Active | Not Active | Not Active | Not Active | – | –
8 | CC(C)(C)c1ccc(S(=O)(=O)/C=C/C#N)cc1 [BAY-11-7085] | Not Active | Not Active | Not Active | Not Active | Not Active | Not Active | Not Active | Not Active | Not Active | Not Active | Not Active | Not Active | – | –
9 | CCC(=O)O[C@H]1[C@H](O[C@@H]2[C@@H](C)[C@H](O[C@H]3C[C@@](C)(OC)[C@@H](O)[C@H](C)O3)[C@@H](C)C(=O)O[C@H](CC)[C@@](C)(O)[C@H](O)[C@@H](C)C(=O)[C@H](C)C[C@@]2(C)O)O[C@H](C)C[C@@H]1N(C)C [ERYTHROMYCIN PROPIONATE] | Not Active | Not Active | Not Active | Not Active | Not Active | Not Active | Not Active | Not Active | Not Active | Not Active | Not Active | Not Active | – | –
10 | C#C[C@]1(O)CC[C@H]2[C@@H]3CCc4cc(O)ccc4[C@H]3CC[C@@]21C [ETHINYL ESTRADIOL] | – | Not Active | Not Active | Not Active | Not Active | Not Active | Not Active | Not Active | Not Active | Not Active | Not Active | Not Active | 10.9 | 26.8
11 | Nc1nc(Cl)nc2c1ncn2[C@H]1C[C@H](O)[C@@H](CO)O1 [CLADRIBINE] | Not Active | Not Active | Not Active | Not Active | Not Active | Not Active | Not Active | Not Active | Not Active | Not Active | Not Active | Not Active | – | –
12 | CC(C)(Sc1cc(C(C)(C)C)c(O)c(C(C)(C)C)c1)Sc1cc(C(C)(C)C)c(O)c(C(C)(C)C)c1 [PROBUCOL] | Not Active | Not Active | Not Active | Not Active | Not Active | Not Active | Not Active | Not Active | Not Active | Not Active | Not Active | Not Active | – | –
13 | CC(CCc1ccc(O)cc1)NCCc1ccc(O)c(O)c1 (stereo unspecified) [DOBUTAMINE] | Not Active | Not Active | Not Active | Not Active | Not Active | Not Active | Not Active | Not Active | Not Active | Not Active | Not Active | Not Active | – | –
14 | CS(=O)(=O)OCCCCOS(C)(=O)=O [BUSULFAN] | Not Active | Not Active | Not Active | Not Active | Not Active | Not Active | Not Active | Not Active | Not Active | Not Active | Not Active | Not Active | – | –
15 | CC(=O)OCC(CCn1cnc2cnc(N)nc21)COC(C)=O [FAMCICLOVIR] | Not Active | Not Active | Not Active | Not Active | Not Active | Not Active | Not Active | Not Active | Not Active | Not Active | Not Active | Not Active | – | –
16 | O=C(c1ccccc1Cl)N1CCC(Cc2ccccc2)CC1 | Not Active | Not Active | Not Active | Not Active | Not Active | Not Active | Not Active | Not Active | Not Active | Not Active | Not Active | Not Active | – | –
17 | Cc1c(F)c(N2CCNC(C)C2)cc2c1c(=O)c(C(=O)O)cn2C1CC1 (stereo unspecified) [GREPAFLOXACIN] | Not Active | Not Active | Not Active | Not Active | Not Active | Not Active | Not Active | Not Active | Not Active | Not Active | Not Active | Not Active | – | –
18 | CC(C(=O)O)c1ccc(-c2ccccc2)c(F)c1 (stereo unspecified) [FLURBIPROFEN] | Not Active | Not Active | Not Active | Not Active | Not Active | Not Active | Not Active | Not Active | Not Active | Not Active | Not Active | Not Active | – | –
19 | COC(=O)c1ccccc1O [METHYL SALICYLATE] | Not Active | Not Active | Not Active | Not Active | Not Active | Not Active | Not Active | Not Active | Not Active | Not Active | Not Active | Not Active | – | –
20 | O=C(O)c1cccnc1 [NIACIN] | Not Active | Not Active | Not Active | Not Active | Not Active | Not Active | Not Active | Not Active | Not Active | Not Active | Not Active | Not Active | – | –

From ChEMBL document CHEMBL1909046, “DrugMatrix in vitro pharmacology data”
